Experimental data published in US9624218B2 (Eli Lilly and Company, priority 2014, dated 2017).
Several values for one entry are separate records, joined by “and”; a condition that tells them apart may be missing. Equal values may be shown once. Read-outs that look alike come from different tables or passages of the source.

What was measured:
[1] = system: Wnt-inducible genes (TCF/LEF luciferase reporter in DLD-1 TOPFlash cells); assay: cells; details: Homo sapiens, DLD-1, 24 h, read-out: Wnt-inducible gene expression inhibition IC50, DLD-1 TOPFlash cells, 24 hours; Mean ± SEM
[2] = system: EGFP-Axin2 fusion protein; details: read-out: Axin2 Stabilization EC50; HEK293 EGFP-Axin2 cells, 24 hours; Mean ± SEM
[3] = system: Wnt-inducible genes (TCF/LEF luciferase reporter in DLD-1 TOPFlash cells); details: read-out: Wnt-inducible gene expression inhibition IC50, 24 hours, Mean ± SEM
Panc 04.03 cells = details: 11 days
HPAF-II cells = assay: cells; details: Homo sapiens, read-out: % Inhibition of Colony Formation
Capan-2 cells = assay: cells; details: Homo sapiens, read-out: % Inhibition of Colony Formation
[4] = system: C57BL/6J-Apc^Min/J strain mice; assay: In vivo antitumor activity, intestinal polyps; details: 25 mg/kg BID, 60 consecutive days, small intestine
Text: C57BL/6J-Apc^Min/J strain mice carry a truncating mutation at codon 850 of the Apc gene and develop intestinal polyps and colorectal neoplasms at the age of 3-6 months. Truncation in the APC gene leads to activation of the Wnt signaling pathway and elevated levels of β catenin are frequently detected in pre-neoplastic/neoplastic lesions in these mice.
At the end of the treatment period, the animals are sacrificed and the number of polyps in the small intestine is counted under a dissection microscope.

A549 cells = assay: cells; details: Homo sapiens, read-out: % Inhibition of Colony Formation
hTNKS1 = hTNKS1 (Homo sapiens (Human), UniProt O95271); assay: hTNKS1 enzyme activity ELISA (poly ADP ribose incorporation into TRF1); format: biochemical; details: Mean ± SEM
hTNKS1, sequence (O95271 whole entry, change not shown): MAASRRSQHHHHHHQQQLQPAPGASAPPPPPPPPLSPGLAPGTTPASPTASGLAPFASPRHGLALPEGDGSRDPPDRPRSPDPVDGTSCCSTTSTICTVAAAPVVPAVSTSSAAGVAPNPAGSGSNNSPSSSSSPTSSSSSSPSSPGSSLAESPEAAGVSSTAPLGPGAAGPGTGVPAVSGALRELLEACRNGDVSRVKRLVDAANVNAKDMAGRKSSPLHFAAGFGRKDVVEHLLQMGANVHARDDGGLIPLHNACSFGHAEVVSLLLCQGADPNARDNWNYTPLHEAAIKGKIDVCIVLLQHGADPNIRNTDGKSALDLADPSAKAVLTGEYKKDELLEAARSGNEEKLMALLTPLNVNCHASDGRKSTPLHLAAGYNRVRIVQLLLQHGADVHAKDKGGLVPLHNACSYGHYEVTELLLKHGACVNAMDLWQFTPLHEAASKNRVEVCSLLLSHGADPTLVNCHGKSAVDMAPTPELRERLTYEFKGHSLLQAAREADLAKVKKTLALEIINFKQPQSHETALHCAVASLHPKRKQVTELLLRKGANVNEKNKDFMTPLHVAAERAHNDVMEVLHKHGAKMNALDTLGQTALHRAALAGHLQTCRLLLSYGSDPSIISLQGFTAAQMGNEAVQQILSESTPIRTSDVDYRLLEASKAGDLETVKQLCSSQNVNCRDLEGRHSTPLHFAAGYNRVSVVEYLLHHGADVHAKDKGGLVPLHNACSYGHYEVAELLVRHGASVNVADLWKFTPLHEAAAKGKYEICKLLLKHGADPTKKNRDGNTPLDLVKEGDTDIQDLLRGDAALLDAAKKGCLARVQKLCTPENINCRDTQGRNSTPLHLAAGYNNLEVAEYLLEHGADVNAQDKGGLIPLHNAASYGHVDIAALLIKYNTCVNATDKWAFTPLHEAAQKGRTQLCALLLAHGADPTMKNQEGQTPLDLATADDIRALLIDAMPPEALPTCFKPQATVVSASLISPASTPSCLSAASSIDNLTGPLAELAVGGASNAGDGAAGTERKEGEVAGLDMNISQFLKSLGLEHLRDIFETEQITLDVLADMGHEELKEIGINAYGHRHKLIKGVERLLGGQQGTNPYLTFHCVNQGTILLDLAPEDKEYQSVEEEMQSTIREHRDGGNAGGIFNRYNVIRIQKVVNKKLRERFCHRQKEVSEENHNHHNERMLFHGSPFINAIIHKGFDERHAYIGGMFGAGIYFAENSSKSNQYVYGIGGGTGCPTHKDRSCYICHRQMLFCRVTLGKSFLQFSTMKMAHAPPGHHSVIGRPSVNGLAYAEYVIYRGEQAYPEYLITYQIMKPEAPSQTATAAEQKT

## CC(c1ncccn1)N1CCN(c2nc3c(c(=O)[nH]2)CCCN3C)CC1 (racemic) [Example 7, 8-Methyl-2-[4-(1-pyrimidin-2-ylethyl)piperazin-1-yl]-3,5,6,7-tetrahydropyrido[2,3-d]pyrimidin-4-one]
[1]
  IC50: 0.0146 µM
[2]
  EC50: 0.121 µM

## CC(c1ncccn1)N1CCN(c2nc3c(c(=O)[nH]2)CCCN3C)CC1 (single isomer, unassigned; isomer 1) [Example 8, 8-Methyl-2-[4-(1-pyrimidin-2-ylethyl)piperazin-1-yl]-3,5,6,7-tetrahydropyrido[2,3-d]pyrimidin-4-one, Isomer 1]
[1]
  IC50: 0.0184 µM
[2]
  EC50: 0.0715 µM

## CC(c1ncccn1)N1CCN(c2nc3c(c(=O)[nH]2)CCCN3C)CC1 (single isomer, unassigned; isomer 2) [Example 9, 8-Methyl-2-[4-(1-pyrimidin-2-ylethyl)piperazin-1-yl]-3,5,6,7-tetrahydropyrido[2,3-d]pyrimidin-4-one, Isomer 2]
[3]
  IC50: 0.0282 µM
[2]
  EC50: 0.0709 µM

## CCC(c1ncccn1)N1CCN(c2nc3c(c(=O)[nH]2)CCCN3C)CC1 (single isomer, unassigned; isomer 2) [Example 12, 8-Methyl-2-[4-(1-pyrimidin-2-ylpropyl)piperazin-1-yl]-3,5,6,7-tetrahydropyrido[2,3-d]pyrimidin-4-one, Isomer 2]
[3]
  IC50: 0.0195 µM
[2]
  EC50: 0.122 µM

## CN1CCCc2c1nc(N1CCN(Cc3ncccn3)CC1)[nH]c2=O [Example 1, 8-Methyl-2-[4-(pyrimidin-2-ylmethyl)piperazin-1-yl]-3,5,6,7-tetrahydropyrido[2,3-d]pyrimidin-4-one]
Panc 04.03 cells; Panc 04.03, 0.03 μM
  % Inhibition of Colony Formation: −34.35%
Panc 04.03 cells; Panc 04.03, 0.11 μM
  % Inhibition of Colony Formation: 51.39%
Panc 04.03 cells; Panc 04.03, 0.33 μM
  % Inhibition of Colony Formation: 92.79%
Panc 04.03 cells; Panc 04.03, 1 μM
  % Inhibition of Colony Formation: 92.51%
Panc 04.03 cells; Panc 04.03, 3 μM
  % Inhibition of Colony Formation: 90.03%
HPAF-II cells
  inhibition at 0.03 µM: 2.44%
  inhibition at 0.11 µM: 40.5%
  inhibition at 0.33 µM: 61.6%
  inhibition at 1 µM: 85.2%
  inhibition at 3 µM: 88.2%
Capan-2 cells
  inhibition at 0.03 µM: -20.8%
  inhibition at 0.11 µM: 18%
  inhibition at 0.33 µM: 55.9%
  inhibition at 1 µM: 63.9%
  inhibition at 3 µM: 70.7%
[1]
  IC50: 0.0132 µM
[2]
  EC50: 0.0659 µM
[4]
  Average Number of polyps per Animal: statistically significant lower number of tumors and 4.3 ± 0.70
A549 cells
  inhibition at 0.03 µM: 25.5%
  inhibition at 0.11 µM: 46.5%
  inhibition at 0.33 µM: 54.2%
  inhibition at 1 µM: 74.3%
  inhibition at 3 µM: 72.1%

## CN1CCCc2c1nc(N1CCN(Cc3ncccc3Cl)CC1)[nH]c2=O [Example 2, 2-[4-[(3-Chloro-2-pyridyl)methyl]piperazin-1-yl]-8-methyl-3,5,6,7-tetrahydropyrido[2,3-d]pyrimidin-4-one]
[1]
  IC50: 0.00817 µM
[2]
  EC50: 0.032 µM

## CN1CCCc2c1nc(N1CCN(Cc3ncccc3Br)CC1)[nH]c2=O [Example 3, 2-[4-[(3-Bromo-2-pyridyl)methyl]piperazin-1-yl]-8-methyl-3,5,6,7-tetrahydropyrido[2,3-d]pyrimidin-4-one]
[1]
  IC50: 0.00866 µM
[2]
  EC50: 0.0184 µM

## CN1CCCc2c1nc(N1CCN(Cc3ncccc3O)CC1)[nH]c2=O [Example 4, 2-[4-[(3-Hydroxy-2-pyridyl)methyl]piperazin-1-yl]-8-methyl-3,5,6,7-tetrahydropyrido[2,3-d]pyrimidin-4-one]
[1]
  IC50: 0.00671 µM
[2]
  EC50: 0.0269 µM

## CC(c1ncc(F)cn1)N1CCN(c2nc3c(c(=O)[nH]2)CCCN3C)CC1 (stereo not shown) [Example 5]
hTNKS1
  IC50: 0.0852 µM

## CCC(c1ncccn1)N1CCN(c2nc3c(c(=O)[nH]2)CCCN3C)CC1 (stereo not shown) [Example 10, 8-Methyl-2-[4-(1-pyrimidin-2-ylpropyl)piperazin-1-yl]-3,5,6,7-tetrahydropyrido[2,3-d]pyrimidin-4-one]
[1]
  IC50: 0.171 µM
[2]
  EC50: 0.59 µM

## COc1ccnc(CN2CCN(c3nc4c(c(=O)[nH]3)CCCN4C)CC2)n1 [Example 13, 2-[4-[(4-methoxypyrimidin-2-yl)methyl]piperazin-1-yl]-8-methyl-3,5,6,7-tetrahydropyrido[2,3-d]pyrimidin-4-one]
[1]
  IC50: 0.023 µM
[2]
  EC50: 0.101 µM

## Cc1ccnc(CN2CCN(c3nc4c(c(=O)[nH]3)CCCN4C)CC2)n1 [Example 14, 8-Methyl-2-[4-[(4-methylpyrimidin-2-yl)methyl]piperazin-1-yl]-3,5,6,7-tetrahydropyrido[2,3-d]pyrimidin-4-one]
[1]
  IC50: 0.00935 µM
[2]
  EC50: 0.0527 µM

## CN1CCCc2c1nc(N1CCN(Cc3ncc(C(F)(F)F)cn3)CC1)[nH]c2=O [Example 15, 8-Methyl-2-[4-[[5-(trifluoromethyl)pyrimidin-2-yl]methyl)piperazin-1-yl]-3,5,6,7-tetrahydropyrido[2,3-d]pyrimidin-4-one]
[1]
  IC50: 0.0154 µM
[2]
  EC50: 0.115 µM

## CN1CCCc2c1nc(N1CCN(Cc3nccc(C(F)(F)F)n3)CC1)[nH]c2=O [Example 16, 8-Methyl-2-[4-[[4-(trifluoromethyl)pyrimidin-2-yl]methyl]piperazin-1-yl]-3,5,6,7-tetrahydropyrido[2,3-d]pyrimidin-4-one]
[1]
  IC50: 0.102 µM
[2]
  EC50: 0.509 µM

## Cc1cnc(CN2CCN(c3nc4c(c(=O)[nH]3)CCCN4C)CC2)nc1 [Example 17, 8-Methyl-2-[4-[(5-methylpyrimidin-2-yl)methyl]piperazin-1-yl]-3,5,6,7-tetrahydropyrido[2,3-d]pyrimidin-4-one]
[1]
  IC50: 0.0373 µM
[2]
  EC50: 0.198 µM

## CN1CCCc2c1nc(N1CCN(Cc3ncc(Cl)cn3)CC1)[nH]c2=O [Example 18, 2-[4-[(5-Chloropyrimidin-2-yl)methyl]piperazin-1-yl]-8-methyl-3,5,6,7-tetrahydropyrido[2,3-d]pyrimidin-4-one]
[1]
  IC50: 0.156 µM
[2]
  EC50: 0.901 µM

## CN1CCCc2c1nc(N1CCN(Cc3ccccn3)CC1)[nH]c2=O [Example 19, 8-Methyl-2-[4-(2-pyridylmethyl)piperazin-1-yl]-3,5,6,7-tetrahydropyrido[2,3-d]pyrimidin-4-one]
[1]
  IC50: 0.0126 µM
[2]
  EC50: 0.0626 µM

## CN1CCCc2c1nc(N1CCN(Cc3ncccc3F)CC1)[nH]c2=O [Example 20, 2-[4-[(3-Fluoro-2-pyridyl)methyl]piperazin-1-yl]-8-methyl-3,5,6,7-tetrahydropyrido[2,3-d]pyrimidin-4-one]
[1]
  IC50: 0.0222 µM
[2]
  EC50: 0.0779 µM

## CN1CCCc2c1nc(N1CCN(Cc3ccccc3Cl)CC1)[nH]c2=O [Example 38, 2-[4-[(2-Chlorophenyl)methyl]piperazin-1-yl]-8-methyl-3,5,6,7-tetrahydropyrido[2,3-d]pyrimidin-4-one]
[1]
  IC50: 0.0222 µM
[2]
  EC50: 0.0348 µM

## CN1CCCc2c1nc(N1CCN(Cc3ncc(F)cn3)CC1)[nH]c2=O [Example 39, 2-[4-[(5-Fluoropyrimidin-2-yl)methyl]piperazin-1-yl]-8-methyl-3,5,6,7-tetrahydropyrido [2,3-d]pyrimidin-4-one]
[1]
  IC50: 0.0206 µM
[2]
  EC50: 0.181 µM

## CN1CCCc2c1nc(N1CCN(Cc3ncccc3C#N)CC1)[nH]c2=O [Example 40, 2-[[4-(8-Methyl-4-oxo-3,5,6,7-tetrahydropyrido[2,3-d]pyrimidin-2-yl)piperazin-1-yl]methyl]pyridine-3-carbonitrile]
[1]
  IC50: 0.00695 µM
[2]
  EC50: 0.0398 µM

## CN1CCCc2c1nc(N1CCN(Cc3nccc(Cl)n3)CC1)[nH]c2=O [Example 41, 2-[4-[(4-Chloropyrimidin-2-yl)methyl]piperazin-1-yl]-8-methyl-3,5,6,7-tetrahydropyrido[2,3-d]pyrimidin-4-one]
[2]
  EC50: 0.0616 µM

## CN1CCCc2c1nc(N1CCN(Cc3cnccn3)CC1)[nH]c2=O [Example 42, 8-Methyl-2-[4-(pyrazin-2-ylmethyl)piperazin-1-yl]-3,5,6,7-tetrahydropyrido[2,3-d]pyrimidin-4-one]
[1]
  IC50: 0.022 µM
[2]
  EC50: 0.141 µM

## CN1CCCc2c1nc(N1CCN(Cc3nccnc3Cl)CC1)[nH]c2=O [Example 43, 2-[4-[(3-Chloropyrazin-2-yl)methyl]piperazin-l-yl]-8-methyl-3,5,6,7-tetrahydropyrido[2,3-d]pyrimidin-4-one]
[2]
  EC50: 0.0745 µM

## Cc1nccnc1CN1CCN(c2nc3c(c(=O)[nH]2)CCCN3C)CC1 [Example 44, 8-Methyl-2-[4-[(3-methyl-pyrazin-2-yl)methyl]piperazin-1-yl]-3,5,6,7-tetrahydropyrido[2,3-d]pyrimidin-4-one]
[1]
  IC50: 0.0112 µM
[2]
  EC50: 0.118 µM

## CN1CCCc2c1nc(N1CCN(Cc3ncc(F)cc3F)CC1)[nH]c2=O [Example 45, 2-[4-[(3,5-Difluoro-2-pyridyl)methyl]piperazin-1-yl]-8-methyl-3,5,6,7-tetrahydropyrido[2,3-d]pyrimidin-4-one]
[1]
  IC50: 0.0188 µM
[2]
  EC50: 0.144 µM
